Reference: patent US11267797B2, “Anticancer agent” (Kyoto Pharmaceutical Industries, Ltd., priority 2014, dated 2022)
Structures can show the parent of a compound that is named as a salt.

Assay: Blood concentration after oral administration to rat or dog
Assay type: in vivo
Details: gavage to male SD rat or male beagle, suspended in 0.5% methylcellulose, 30 mg/kg or 100 mg/kg, respectively, HPLC or LC-MS/MS; for blood concentration of compound (A) after administration of the Example compound: 0.25-24 hr
Method: Experimental Example 2: Blood Concentration after Oral Administration to Rat or Dog
Compound (A) or Example compound suspended in 0.5% methylcellulose solution was administered by gavage to male SD rat or male beagle at a dose of 30 mg/kg or 100 mg/kg, respectively. At 0.25, 0.5, 1, 2, 4, 6 and 24 hr after administration, blood samples were collected from the cervical vein with a 1 mL syringe and was added in a 2.0 mL tube to which heparin was added. The blood was treated with acetonitrile, and the blood concentration of compound (A) was determined by using HPLC or LC-MS/MS.

| blood concentration of compound (A) after administration of the Example compound | maximum blood concentration of compound (A), compared with administration of compound (A) itself | Compound |
| --- | --- | --- |
| emerged in the blood over time | higher | O=C(/C=C(\O)c1cc2c(o1)C(=O)c1ccccc1C2=O)OCCCO [Example 133] |
| emerged in the blood over time | higher | COCC(C)(C)C(=O)OC(C)OC(=O)CC(=O)c1cc2c(o1)C(=O)c1ccccc1C2=O (stereo not drawn) [Example 54] |
| emerged in the blood over time | higher | CCN(CC)CC#CCOC(=O)CC(=O)c1cc2c(o1)C(=O)c1ccccc1C2=O.Cl [Example 93] |
| emerged in the blood over time | higher | O=C(/C=C(\O)c1cc2c(o1)C(=O)c1ccccc1C2=O)OCC(CO)CO [Example 126] |
| emerged in the blood over time | higher | C[C@H](N)C(=O)OCCOC(=O)CC(=O)c1cc2c(o1)C(=O)c1ccccc1C2=O.Cl [Example 74] |
| emerged in the blood over time | higher | O=C(/C=C(\[O-])c1cc2c(o1)C(=O)c1ccccc1C2=O)OCC(O)CO.[Na+] (stereo not drawn) [Example 88] |
| emerged in the blood over time | higher | N[C@@H](CO)C(=O)OCCOC(=O)CC(=O)c1cc2c(o1)C(=O)c1ccccc1C2=O [Example 75] |
| emerged in the blood over time | higher | O=C(/C=C(\O)c1cc2c(o1)C(=O)c1ccccc1C2=O)OCCO [Example 13, 2-Hydroxyethyl 3-(4,9-dioxo-4,9-dihydro-naphtho[2,3-b]furan-2-yl)-3-hydroxy-acrylate Ethanolamine Salt] |
| emerged in the blood over time | higher | O=C(/C=C(\O)c1cc2c(o1)C(=O)c1ccccc1C2=O)OCC(O)CO (stereo not drawn) [Example 95] |
| emerged in the blood over time | higher | CC(OC(=O)CC(=O)c1cc2c(o1)C(=O)c1ccccc1C2=O)OC(=O)OC[C@@H](O)CO (stereo partly drawn) [Example 65] |
| emerged in the blood over time | higher | O=C(/C=C(\O)c1cc2c(o1)C(=O)c1ccccc1C2=O)OCCOCCO [Example 125] |
| emerged in the blood over time | higher | COCCOC(=O)CC(=O)c1cc2c(o1)C(=O)c1ccccc1C2=O [Example 79] |
| emerged in the blood over time | higher | CC(OC(=O)CC(=O)c1cc2c(o1)C(=O)c1ccccc1C2=O)OC(=O)OCC1COC(C)(C)O1 (stereo not drawn) [Example 66] |
| emerged in the blood over time | higher | O=C(CC(=O)c1cc2c(o1)C(=O)c1ccccc1C2=O)OCOC(=O)C(O)CO (stereo not drawn) [Example 60] |
| emerged in the blood over time | higher | CC(C)N1CC(OC(=O)CC(=O)c2cc3c(o2)C(=O)c2ccccc2C3=O)C1.Cl [Example 114] |
| emerged in the blood over time | higher | Cl.O=C(CC(=O)c1cc2c(o1)C(=O)c1ccccc1C2=O)OCC#CCN1CCCC1 [Example 116] |
| emerged in the blood over time | higher | CC(C)[C@H](N)C(=O)OCCCOC(=O)CC(=O)c1cc2c(o1)C(=O)c1ccccc1C2=O.Cl [Example 120] |
| emerged in the blood over time | higher | O=C(/C=C(\O)c1cc2c(o1)C(=O)c1ccccc1C2=O)OCCOCC(O)CO (stereo not drawn) [Example 129] |
